Columns and labels:
Silverleaf Whiteflies = assay: Greenhouse no choice oviposition of whiteflies on squash; format: in vivo, Bemisia argentifolii; conditions: spun sucrose trial
Description: Whiteflies were tested with a “No Choice” protocol using single treated and untreated summer squash plants var. “Seneca.” Two liter, polyethylene soda container arenas holding a single squash plant in a potting soil mixture were used for whitefly studies. Ten mating pairs of whiteflies were introduced into each arena for all studies. Up to forty arenas, depending on the treatment parameters of a given trial, were run simultaneously under identical ambient conditions. Ambient temperature and time of day were tracked during greenhouse trials. […] Counts were made using a binocular dissecting scope. […] While EVA, graphite and PVA fibers were relatively stable in greenhouse studies, the sucrose fibers were quickly degraded by moisture and formed a sugar coating of the leafs surface with numerous raised and stable sugar droplets. This was an expected result and the efficacy of this fiber application was worthy of testing.

D. radicum = assay: Fibers+optical brightener/cabbage maggot field-cage experiment; format: in vivo, Delia radicum; conditions: rate 0.033 kg ai/100-m row
Source text: Fibers+optical brightener/cabbage maggot field-cage experiment. Optical (fluorescent) brighteners are widely used in paints, fabrics, plastics and detergents, wherein they enhance the apparent brightness of the material by absorbing UV radiation and emitting light in the blue visual spectrum (Martinez et al. 2000). These brighteners were feasible to use with our existing technology and could potentially increase fiber effectiveness. Thus in mid-May 2000, we tested the efficacy of optical brighteners added to EVA fibers against cabbage maggots in four large (3.7×3.7×1.8-m) Lumite® field cages. The experiment was a randomized complete block design with four replicates (cages).
Within each cage, six rows (3-m long) were formed about 0.3-m apart by hand plowing. Greenhouse-grown two-leaf stage broccoli cv ‘Southern Comet’ was transplanted into the 6 rows within each cage at a plant spacing of 15 cm. One row of broccoli represented a single treatment within each cage. […]
On May 21 , approximately 175 D. radicum pupae were released into each of the four cages and 10% sucrose solution was provided as a food source for emerging adults. […] Total number of larvae and pupae per plant was recorded.

## OC[C@H]1O[C@@](CO)(O[C@H]2O[C@H](CO)[C@@H](O)[C@H](O)[C@H]2O)[C@@H](O)[C@@H]1O [Sugar, sucrose]
Silverleaf Whiteflies
  Total # of eggs (total mean number of eggs/plant): 5.867
Silverleaf Whiteflies; listed as sucrose
  Total # of eggs (total mean number of eggs/plant): 5.87±1.96

## CCOP(=S)(OCC)Oc1nc(Cl)c(Cl)cc1Cl [Chlorpyrifos drench, chlorpyrifos]
D. radicum
  D. radicum larvae per 3-m row of broccoli: 6.0 ± 2.3

— patent publication US20030198659A1, “Fibrous pest control” (priority 2001, published 2003)
